The NIST ThermoML archive (doi:10.1007/s10765-008-0497-7)
± gives the expanded uncertainty stated by the source.

Details: Liquid

CCCCCCn1cc[n+](C)c1.F[B-](F)(F)F [1-hexyl-3-methylimidazolium tetrafluoroborate]
viscosity [mPa·s]
Details	Cone and plate viscometry	Moving piston method
298.15 K, 100 kPa	–	202 ± 12
298.15 K, 101.33 kPa	210.4 ± 12	202.4 ± 2.1
298.15 K, 2640 kPa	–	209 ± 13
298.15 K, 4290 kPa	–	213 ± 13
298.15 K, 6950 kPa	–	215 ± 13
298.15 K, 34590 kPa	–	299 ± 18
298.15 K, 48400 kPa	–	387 ± 23
298.15 K, 68140 kPa	–	478 ± 29
298.15 K, 82970 kPa	–	532 ± 32
298.15 K, 96820 kPa	–	621 ± 38
298.15 K, 108550 kPa	–	743 ± 45
298.15 K, 117850 kPa	–	819 ± 50
323.15 K, 100 kPa	–	58.5 ± 3.6
323.15 K, 101.33 kPa	–	58.5 ± 1
323.15 K, 2600 kPa	–	59.7 ± 3.7
323.15 K, 4130 kPa	–	61 ± 3.8
323.15 K, 6850 kPa	–	62 ± 3.8
323.15 K, 34520 kPa	–	79.9 ± 5
323.15 K, 48180 kPa	–	91.1 ± 5.7
323.15 K, 68990 kPa	–	108.2 ± 6.8
323.15 K, 82710 kPa	–	121.8 ± 7.6
323.15 K, 96550 kPa	–	136 ± 8.6
323.15 K, 110120 kPa	–	152.4 ± 9.7
323.15 K, 121810 kPa	–	165 ± 11
343.15 K, 100 kPa	–	27 ± 1.7
343.15 K, 101.33 kPa	–	27 ± 0.4
343.15 K, 3100 kPa	–	27.6 ± 1.7
343.15 K, 4100 kPa	–	27.5 ± 1.7
343.15 K, 7100 kPa	–	28 ± 1.7
343.15 K, 35100 kPa	–	35.2 ± 2.2
343.15 K, 48340 kPa	–	39.2 ± 2.4
343.15 K, 68140 kPa	–	45 ± 2.8
343.15 K, 83080 kPa	–	49.9 ± 3.1
343.15 K, 96550 kPa	–	55.1 ± 3.4
343.15 K, 110120 kPa	–	60.8 ± 3.8
343.15 K, 121810 kPa	–	65 ± 4

CCn1cc[n+](C)c1.O=S(=O)([N-]S(=O)(=O)C(F)(F)F)C(F)(F)F
viscosity [mPa·s]
Details	298.15 K	323.15 K	343.15 K
100 kPa, Moving piston method	34.4 ± 2.1	15.6 ± 0.9	9.6 ± 0.6
101.33 kPa, Cone and plate viscometry	34.1 ± 1	–	–
101.33 kPa, Moving piston method	34.29 ± 0.26	15.6 ± 0.2	9.55 ± 0.09
2820 kPa, Moving piston method	35 ± 2.1	16.1 ± 1	9.8 ± 0.6
4190 kPa, Moving piston method	35.3 ± 2.1	16.4 ± 1	9.9 ± 0.6
7360 kPa, Moving piston method	36.2 ± 2.2	16.9 ± 1	10.2 ± 0.6
35560 kPa, Moving piston method	46.8 ± 2.8	22 ± 1.3	12.6 ± 0.8
48760 kPa, Moving piston method	53.3 ± 3.2	24.9 ± 1.5	13.8 ± 0.8
69300 kPa, Moving piston method	65 ± 3.9	30.8 ± 1.9	16 ± 1
85200 kPa, Moving piston method	79.4 ± 4.8	36.7 ± 2.2	17.7 ± 1.1
96500 kPa, Moving piston method	90 ± 5.4	40.1 ± 2.4	19.2 ± 1.2
110550 kPa, Moving piston method	108.6 ± 6.5	44.8 ± 2.7	21.2 ± 1.3
121530 kPa, Moving piston method	–	49.5 ± 3	–
122430 kPa, Moving piston method	131.5 ± 7.9	–	–
125530 kPa, Moving piston method	–	–	23.4 ± 1.4

CCCCCC[n+]1ccn(C)c1.O=S(=O)([N-]S(=O)(=O)C(F)(F)F)C(F)(F)F
viscosity [mPa·s]
Details	298.15 K	323.15 K	343.15 K
100 kPa, Moving piston method	70.96 ± 4.3	24.9 ± 1.5	14.07 ± 0.85
101.33 kPa, Cone and plate viscometry	71.5 ± 2.4	–	–
101.33 kPa, Moving piston method	71 ± 0.7	24.9 ± 0.3	14.1 ± 0.4
2990 kPa, Moving piston method	71.04 ± 4.3	25.81 ± 1.6	14.12 ± 0.86
4000 kPa, Moving piston method	71.38 ± 4.3	25.98 ± 1.6	14.22 ± 0.86
7000 kPa, Moving piston method	73.71 ± 4.4	26.87 ± 1.6	14.6 ± 0.9
35000 kPa, Moving piston method	103.4 ± 6.2	35.96 ± 2.2	18.62 ± 1.1
50000 kPa, Moving piston method	122.2 ± 7.4	41.57 ± 2.5	21.1 ± 1.3
70000 kPa, Moving piston method	152.2 ± 9.2	50.43 ± 3.1	25.17 ± 1.5
83000 kPa, Moving piston method	173.2 ± 10	56.96 ± 3.5	28.12 ± 1.7
93000 kPa, Moving piston method	196.3 ± 12	62.11 ± 3.8	30.42 ± 1.9
110000 kPa, Moving piston method	237.6 ± 14	71.6 ± 4.4	34.65 ± 2.1
124000 kPa, Moving piston method	275.7 ± 17	80.46 ± 5	38.34 ± 2.3

CCCCCCn1cc[n+](C)c1.F[P-](F)(F)(F)(F)F [1-hexyl-3-methylimidazolium hexafluorophosphate]
viscosity [mPa·s]
Details	298.15 K	323.15 K	343.15 K
100 kPa, Moving piston method	481 ± 29	121.4 ± 7.5	48.1 ± 3
101.33 kPa, Cone and plate viscometry	489.5 ± 40	–	–
101.33 kPa, Moving piston method	481.4 ± 5.7	121.4 ± 2.1	48.1 ± 1
2990 kPa, Moving piston method	523 ± 32	–	–
4000 kPa, Moving piston method	530 ± 32	127.1 ± 7.9	50.3 ± 3.1
7000 kPa, Moving piston method	556 ± 34	–	–
7600 kPa, Moving piston method	–	132.4 ± 8.3	52 ± 3.2
22000 kPa, Moving piston method	701 ± 42	–	–
25800 kPa, Moving piston method	–	164 ± 10	62.6 ± 3.9
35000 kPa, Moving piston method	833 ± 50	182.6 ± 12	68.6 ± 4.3
42100 kPa, Moving piston method	920 ± 55	–	–
50000 kPa, Moving piston method	1023 ± 62	–	–
50600 kPa, Moving piston method	–	218.9 ± 14	80.5 ± 5
60300 kPa, Moving piston method	1176 ± 71	241.7 ± 15	88.1 ± 5.5
76000 kPa, Moving piston method	–	280.8 ± 17	102.5 ± 6.4
93000 kPa, Moving piston method	–	334.2 ± 20	118.7 ± 7.4
101000 kPa, Moving piston method	–	364.2 ± 22	127.1 ± 8
126000 kPa, Moving piston method	–	483.1 ± 29	157.8 ± 10

CCCCn1cc[n+](C)c1.F[P-](F)(F)(F)(F)F [1-butyl-3-methylimidazolium hexafluorophosphate]
298.15 K, Moving piston method
Details	viscosity [mPa·s]
100 kPa	270.9 ± 21
3400 kPa	289.7 ± 23
6900 kPa	305.7 ± 24
12100 kPa	329.2 ± 26
17200 kPa	353.7 ± 29
24700 kPa	396.3 ± 33
25700 kPa	398.2 ± 33
41400 kPa	473.8 ± 41
50600 kPa	543.4 ± 49

CCCCCCCCCCn1cc[n+](C)c1.O=S(=O)([N-]S(=O)(=O)C(F)(F)F)C(F)(F)F
viscosity [mPa·s]
Details	298.15 K	323.15 K	343.15 K
100 kPa, Moving piston method	108.2 ± 6.5	36.2 ± 2.2	18.15 ± 1.1
101.33 kPa, Cone and plate viscometry	111.2 ± 4.5	–	–
101.33 kPa, Moving piston method	108.2 ± 1.1	36.3 ± 0.5	18.2 ± 0.23
2950 kPa, Moving piston method	111.5 ± 6.7	37.5 ± 2.3	18.55 ± 1.1
4270 kPa, Moving piston method	112.8 ± 6.8	38.2 ± 2.3	18.75 ± 1.1
6900 kPa, Moving piston method	117.6 ± 7.1	39.2 ± 2.4	19.3 ± 1.2
34600 kPa, Moving piston method	167.5 ± 10	53.6 ± 3.3	25.76 ± 1.6
47960 kPa, Moving piston method	199 ± 12	61.8 ± 3.8	29.15 ± 1.8
68870 kPa, Moving piston method	257 ± 16	76 ± 4.7	35.72 ± 2.2
83290 kPa, Moving piston method	301.1 ± 18	85.9 ± 5.3	40.47 ± 2.5
93030 kPa, Moving piston method	336.7 ± 20	94.3 ± 5.8	44.56 ± 2.7
109800 kPa, Moving piston method	402.7 ± 24	110.8 ± 6.9	51.26 ± 3.1
122570 kPa, Moving piston method	459.8 ± 28	122.6 ± 7.7	56.74 ± 3.5
